In one data set the test system is E. coli. Put plainly: Broth microdilution MIC of lecithin/chitosan particle compositions. The data set is classed as cell-based. To be noted: maximum concentration tested 10 mg/ml. As for the experimental part: (§1) Initially, to determine basic characteristics, each active component was separately mixed, generally under agitated conditions, with water, and each was miscible with water. Each, after being mixed with water, was tested in a broth microdilution assay, against a variety of bacteria using amounts of the each of the lauric acid derivatives, ranging from about 0.0009 wt. % to about 8 wt. %. The bacteria included Escherichia coli, and Staphylococcus aureus (including MRSA strains). The minimum inhibitory concentration (MIC) needed to prevent growth of the target bacteria was evaluated based on a method published by Clinical Laboratory Standards Institute (CLSI), broth microdilution method M-07 (M07). […] Each of the samples containing one of the lauric acid derivatives was compared with a positive control, decanoic acid.
(§2) For TABLES 1 to 3, compositions were generally prepared as described above, and as further outlined in this paragraph. For these examples, the active component, as a lauric acid derivative or lauric acid, was suspended in an organic solvent, chloroform, and then mixed with water, under robust agitation. The amount of water to the amount of chloroform was at least about 2:1, and could be as high as 10:1. Chloroform was then evaporated (e.g., under vacuum using a freeze dryer). After removal of the chloroform, a 2.2% lecithin solution in an acetate buffer (e.g., 98 mM acetic acid and 2 mM sodium acetate) was prepared and added, so the final amount of the active component was about 1 part active component mixture and about 9 parts of the 2.2% lecithin solution. Of course, it is noted that other ranges to achieve final amount of the active component as described above (e.g., active component mixture and lecithin solution) may also be utilized. Cholesterol could also be optionally added. The mixture of lecithin and the active component was mixed and sonicated, and then a solution of about 1.5% chitosan was added. Thereafter, the entirety of the mixture containing the lecithin and the active component was further blended, in which a final ratio was about 1 part active component to about 9 parts of the 2.2% lecithin solution to about 10 parts of the 1.5% chitosan solution. The pH was then varied, to a pH of 5, or a pH of 7, or a pH of 9. In some mixtures having a pH of 7, a chemical agent imparting a positive charge to the chitosan was included in a form of glycol chitosan. In these tests, the chemical agent used was glycol. In these examples, the amount of chemical agent, glycol was about one molecule glycol moiety to one molecule chitosan sacharide unit; higher amounts of glycol moieties are also acceptable, while lower amounts of glycol moieties were often found to decrease overall inhibitory activity associated with a composition when formed and tested in vitro. It is noted that negatively charged chitosan containing particles were prepared. […] After mixing, the mixtures could each be filtered through a […] filter. In some tests, the mixtures were sonicated before filtering. Sonication produced small particles. In some studies, particles were freeze dried as a powder (generally, after mixing, sonicating and filtering).
(§3) The positive controls were prepared and evaluated in a similar manner. All prepared samples were tested using a broth microdilution test.
A general note: Broth dilution looks for growth in wells or tubes with falling amounts of substance.

A further data set deals with S. epidermidis. The data set is described as above. The data set is classed as cell-based. The conditions noted are these: lecithin/chitosan particle composition; prep. mixture pH 5 or pH 7; maximum concentration tested 10 mg/ml. As for the experimental part:
as §1, §2, §3

Data set [1] relates to Gram-positive pathogens and Gram-negative pathogens. As to the kind of experiment: In vitro inhibitory activity of chitosan- or carrier-containing particles. The data set is classed as cell-based.
Text: as §2, §3
This also occurs when the chitosan- or carrier-containing particle includes an active component that has a log P value that is less than 4 and includes a methyl and/or ethyl side chain (e.g., 12-amino-1-dodecanoic acid methyl ester). […]

Data set [2] is classed as in vivo. The conditions noted are these: mice, oral capsules approximately 4 mg active component in chitosan-containing particles, three times per day for seven days. From the text: Laboratory trials have shown that no resistance has developed in pathogens exposed to the compositions described herein, even with long term, repeated exposure (data not shown). In addition, no intrinsic resistance can or has been detected in target pathogens. […] A placebo group is also included, in which a group of 10 mice are given a placebo set of capsules, orally, three times per day and continued for seven days, each of the placebo set of capsules containing similarly prepared chitosan-containing particles without an active component, the preparation being generally as described herein. Initial mice have been infected with Salmonella typhimurium prior to oral delivery of one of the set of capsules. The capsules may be vegetable capsules. The capsules may have an enteric coating. For delivery, a formulation may be prepared in a manner understood in the relevant art. For delivery, a formulation may be in at least any one or more of the following forms: liquid, capsule, dried powder, mist, and the like. For delivery, the formulation will contain pharmaceutical grade materials, including one or more excipients and or fillers for internal and/or topical delivery in sufficient amounts known to those of skill in the relevant art. Flavors, colors, sugars, sugar-substitutes, and the like may also be included in any of the formulations, as is understood to those of skill in the relevant art.

In the case of sucrose monolaurate, in the data set on E. coli (lecithin/chitosan particle composition, prep. mixture pH 5 or pH 7), the “MIC (mg/ml) for E. coli (chitosan prep. mixture was at pH 5 or at pH 7)” value is “— (no inhibitory activity)”. Also, in the data set on E. coli (lecithin/chitosan particle composition, prep. mixture pH 9), the “MIC (mg/ml) for E. coli (chitosan prep. mixture was at pH 9)” value is 10 mg/ml. Also, the “MIC (mg/ml) for E. coli (chitosan prep. mixture was at pH 7 with glycol chitosan)” value with E. coli (lecithin/glycol chitosan particle composition, prep. mixture pH 7) was 10 mg/ml. The “MIC (mg/ml) for S. epidermidis (chitosan prep. mixture was at pH 5 or at pH 7)” value in the data set with S. epidermidis is reported as 10 mg/ml. For the same substance, the “Inhibitory activity against both Gram-positive pathogens and Gram-negative pathogens” value in data set [1] (synthesis (with chitosan) at pH 7 with positively charged chitosan) and in data set [1] (synthesis (with chitosan) at pH 9) was “stronger inhibitory activity as well as broad spectrum activity” each time. The “Safety in animal trials” value in data set [2] is “no safety concerns”.

Values taken from patent publication US11351134B2, “Small molecule agents, compositions, and formulations, for internal use, displaying inhibitory activity against gram-positive and/or gram-negative organisms” (NATUREZA, INC., priority 2017, dated 2022).
